Source: patent US12606533B2, “3-phenylpropylamine derivative” (DAIICHI SANKYO COMPANY, LIMITED, priority 2023, dated 2026)

Tests used:
[1] = tested on: NCI-H295R cells; assay: Proliferation inhibitory action on NCI-H295R (CellTiter-Glo, 7 days); assay type: cell-based, human; conditions: Homo sapiens, NCI-H295R, 168 h
How it was run: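 Compounds serially diluted in DMSO; cells seeded at 2×10^3 cells/well and cultured 7 days at 37° C, 5% CO2. CellTiter-Glo 2.0 luminescence read at day 0 and day 7; proliferation rate derived from compound-addition-day signal, untreated day-7 signal and treated day-7 signal.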

[2] = molecular target: T1, SF-1 (Homo sapiens, UniProt Q13285); assay: SF1 degradation induction in NCI-H295R SF-1-HiBiT cells (HiBiT DC50); assay type: cell-based; conditions: 24 hr, concentration that induces 50% degradation of SF-1
T1 construct: NCI-H295R SF-1-HiBiT cells with HiBiT tag knocked in at the endogenous SF1 locus; host or cells: NCI-H295R SF-1-HiBiT (knock-in at endogenous locus)
How it was run: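 NCI-H295R cells carrying HiBiT-tagged SF-1, plated and grown 24 hr, then exposed to serially diluted compounds for 24 hr at 37° C. Remaining SF-1 read by lytic HiBiT luminescence; degradation rate from treated vs compound-free signal, DC50 as concentration giving 50% degradation.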

`COc1ccc(C2(CCN(Cc3ccc(OC4CCN(CC(=O)Nc5cccc6c5n(C)c(=O)n6C5CCC(=O)NC5=O)CC4)cc3)CC(C)(C)C(F)(F)F)CCOCC2)cc1` (stereo not shown) [Example AC6, N-[1-(2,6-Dioxopiperidin-3-yl)-3-methyl-2-oxo-2,3-dihydro-1H-benzimidazol-4-yl]-2-[4-(4-{[{2-[4-(4-methoxyphenyl)tetrahydro-2H-pyran-4-yl]ethyl}(3,3,3-trifluoro-2,2-dimethylpropyl)amino]methyl}phenoxy)piperidin-1-yl]acetamide] gave a GI50 [1] of 73 nM and a DC50 [2] of 26 nM.

`COc1ccc([C@]2(CCN(Cc3ccc(OC4CC5(CCN(CC(=O)Nc6cccc7c6n(C)c(=O)n7C6CCC(=O)NC6=O)CC5)C4)cc3)CC(C)(C)C(F)(F)F)CCOC(C)(C)C2)cc1` (stereo partly drawn) [Example AD1, N-[1-(2,6-Dioxopiperidin-3-yl)-3-methyl-2-oxo-2,3-dihydro-1H-benzimidazol-4-yl]-2-[2-(4-{[{2-[(4R)-4-(4-methoxyphenyl)-2,2-dimethyltetrahydro-2H-pyran-4-yl]ethyl}(3,3,3-trifluoro-2,2-dimethylpropyl)amino]methyl}phenoxy)-7-azaspiro[3.5]nonan-7-yl]acetamide] was tested, and the GI50 [1] was 47 nM and the DC50 [2] was 6.9 nM.

Work on `COc1ccc([C@]2(CCN(Cc3ccc(OC4CC5(CCN(CC(=O)Nc6ccc7c(c6)n(C)c(=O)n7C6CCC(=O)NC6=O)CC5)C4)cc3)CC(C)(C)C(F)(F)F)CCOC(C)(C)C2)cc1` (stereo partly drawn) [Example AE1, N-[1-(2,6-Dioxopiperidin-3-yl)-3-methyl-2-oxo-2,3-dihydro-1H-benzimidazol-5-yl]-2-[2-(4-{[{2-[(4R)-4-(4-methoxyphenyl)-2,2-dimethyltetrahydro-2H-pyran-4-yl]ethyl}(3,3,3-trifluoro-2,2-dimethylpropyl)amino]methyl}phenoxy)-7-azaspiro[3.5]nonan-7-yl]acetamide] yielded a GI50 [1] of 40 nM and a DC50 [2] of 8.5 nM.

`COc1ccc([C@]2(CCN(Cc3ccc(OC4CC5(CCN(CC(=O)Nc6ccc7c(c6)CN(C6CCC(=O)NC6=O)C7=O)CC5)C4)cc3)CC(C)(C)C(F)(F)F)CCOC(C)(C)C2)cc1` (stereo partly drawn) [Example AF1, N-[2-(2,6-Dioxopiperidin-3-yl)-1-oxo-2,3-dihydro-1H-isoindol-5-yl]-2-[2-(4-{[{2-[(4R)-4-(4-methoxyphenyl)-2,2-dimethyltetrahydro-2H-pyran-4-yl]ethyl}(3,3,3-trifluoro-2,2-dimethylpropyl)amino]methyl}phenoxy)-7-azaspiro[3.5]nonan-7-yl]acetamide] showed a GI50 [1] of 121 nM and a DC50 [2] of 6.9 nM.

Compound `COc1ccc([C@]2(CCN(Cc3ccc(C4=CCC(CN5CCN(C(=O)c6ccc7c(c6)CN(C6CCC(=O)NC6=O)C7=O)CC5)CC4)cc3)CC(C)(C)C(F)(F)F)CCOC(C)(C)C2)cc1` (stereo partly drawn) [Example AG7, 3-[5-({4-[(4′-{[{2-[(4R)-4-(4-Methoxyphenyl)-2,2-dimethyltetrahydro-2H-pyran-4-yl]ethyl}(3,3,3-trifluoro-2,2-dimethylpropyl)amino]methyl}-2,3,4,5-tetrahydro[biphenyl]-4-yl)methyl]piperazin-1-yl}carbonyl)-1-oxo-1,3-dihydro-2H-isoindol-2-yl]piperidine-2,6-dione] has a GI50 [1] of 147 nM and a DC50 [2] of 8.7 nM.

For `COc1ccc([C@]2(CCN(Cc3ccc(C4=CCC(CN5CCN(C(=O)c6cccc7c6n(C)c(=O)n7C6CCC(=O)NC6=O)CC5)CC4)cc3)CC(C)(C)C(F)(F)F)CCOC(C)(C)C2)cc1` (stereo partly drawn) [Example AH4, 3-[4-({4-[(4′-{[{2-[(4R)-4-(4-Methoxyphenyl)-2,2-dimethyltetrahydro-2H-pyran-4-yl]ethyl}(3,3,3-trifluoro-2,2-dimethylpropyl)amino]methyl}-2,3,4,5-tetrahydro[biphenyl]-4-yl)methyl]piperazin-1-yl}carbonyl)-3-methyl-2-oxo-2,3-dihydro-1H-benzimidazol-1-yl]piperidine-2,6-dione], the GI50 [1] was 123 nM and the DC50 [2] was 5.7 nM.

Work on `COc1ccc([C@]2(CCN(Cc3ccc([C@H]4CC[C@@H](CN5CCN(C(=O)c6ccc7c(c6)n(C)c(=O)n7C6CCC(=O)NC6=O)CC5)CC4)cc3)CC(C)(C)C(F)(F)F)CCOC(C)(C)C2)cc1` (stereo partly drawn) [Example AI11, 3-{5-[(4-{[Cis-4-(4-{[{2-[(4R)-4-(4-methoxyphenyl)-2,2-dimethyltetrahydro-2H-pyran-4-yl]ethyl}(3,3,3-trifluoro-2,2-dimethylpropyl)amino]methyl}phenyl)cyclohexyl]methyl}piperazin-1-yl)carbonyl]-3-methyl-2-oxo-2,3-dihydro-1H-benzimidazol-1-yl}piperidine-2,6-dione] yielded a GI50 [1] of 90 nM and a DC50 [2] of 6.2 nM.

Work on `COc1ccc([C@]2(CCN(Cc3ccc(OC4CC5(CCN(CC(=O)N6CCc7ccc8c(c7C6)n(C)c(=O)n8C6CCC(=O)NC6=O)CC5)C4)cc3)CC(C)(C)C(F)(F)F)CCOC(C)(C)C2)cc1` (stereo partly drawn) [Example AK10, 3-(8-{[2-(4-{[{2-[(4R)-4-(4-Methoxyphenyl)-2,2-dimethyltetrahydro-2H-pyran-4-yl]ethyl}(3,3,3-trifluoro-2,2-dimethylpropyl)amino]methyl}phenoxy)-7-azaspiro[3.5]nonan-7-yl]acetyl}-1-methyl-2-oxo-1,2,6,7,8,9-hexahydro-3H-imidazo[4,5-h]isoquinolin-3-yl)piperidine-2,6-dione] yielded a GI50 [1] of 82 nM and a DC50 [2] of 4.9 nM.

`COc1ccc([C@]2(CCN(Cc3ccc(OC4CC5(CCN(CC(=O)N6Cc7ccc8c(c7C6)n(C)c(=O)n8C6CCC(=O)NC6=O)CC5)C4)cc3)CC(C)(C)C(F)(F)F)CCOC(C)(C)C2)cc1` (stereo partly drawn) [Example AL4, 3-[7-{[2-(4-{[{2-[(4R)-4-(4-Methoxyphenyl)-2,2-dimethyltetrahydro-2H-pyran-4-yl]ethyl}(3,3,3-trifluoro-2,2-dimethylpropyl)amino]methyl}phenoxy)-7-azaspiro[3.5]nonan-7-yl]acetyl}-1-methyl-2-oxo-1,6,7,8-tetrahydroimidazo[4,5-e]isoindole-3(2H)-yl]piperidine-2,6-dione] was tested, and the GI50 [1] was 83 nM and the DC50 [2] was 4.5 nM.

`COc1ccc([C@]2(CCN(Cc3ccc(C4=CCC(CC(=O)NCCNc5ccc6c(c5)n(C)c(=O)n6C5CCC(=O)NC5=O)CC4)cc3)CC(C)(C)C(F)(F)F)CCOC(C)(C)C2)cc1` (stereo partly drawn) [Example Y6, N-(2-{[1-(2,6-Dioxopiperidin-3-yl)-3-methyl-2-oxo-2,3-dihydro-1H-benzimidazol-5-yl]amino}ethyl)-2-(4′-{[{2-[(4R)-4-(4-methoxyphenyl)-2,2-dimethyltetrahydro-2H-pyran-4-yl]ethyl}(3,3,3-trifluoro-2,2-dimethylpropyl)amino]methyl}-2,3,4,5-tetrahydro[biphenyl]-4-yl)acetamide] was tested, and the GI50 [1] was 199 nM and the DC50 [2] was 12 nM.

For `COc1ccc([C@]2(CCN(Cc3ccc(OC4CCN(CC(=O)Nc5cccc6c5n(C)c(=O)n6C5CCC(=O)NC5=O)CC4)cc3)CC(C)(C)C(F)(F)F)CCOC(C)(C)C2)cc1` (stereo partly drawn) [Example Z8, N-[1-(2,6-Dioxopiperidin-3-yl)-3-methyl-2-oxo-2,3-dihydro-1H-benzimidazol-4-yl]-2-[4-(4-{[{2-[(4R)-4-(4-methoxyphenyl)-2,2-dimethyltetrahydro-2H-pyran-4-yl]ethyl)(3,3,3-trifluoro-2,2-dimethylpropyl)amino]methyl}phenoxy)piperidin-1-yl]acetamide], the GI50 [1] was 43 nM and the DC50 [2] was 10 nM.
